Test results from the NIST ThermoML archive (doi:10.1021/je900596d).
Numbers after ± are expanded uncertainties.

Details: for mass density: Vibrating tube method

FC(F)=C(F)C(F)(F)F [hexafluoropropene]
Details | mass density [kg/m3] | vapor or sublimation pressure [kPa]
355.18 K, 9543 kPa, Liquid | 1138.93 ± 1.2 | –
355.18 K, 9592.9 kPa, Liquid | 1139.78 ± 1.2 | –
355.18 K, 9645.5 kPa, Liquid | 1140.58 ± 1.2 | –
355.18 K, 9695.7 kPa, Liquid | 1141.39 ± 1.2 | –
355.18 K, 9747.1 kPa, Liquid | 1142.23 ± 1.2 | –
355.18 K, 9796.2 kPa, Liquid | 1143.06 ± 1.2 | –
355.18 K, 9846.2 kPa, Liquid | 1143.79 ± 1.2 | –
355.18 K, 9896.5 kPa, Liquid | 1144.79 ± 1.2 | –
355.18 K, 9947.2 kPa, Liquid | 1145.37 ± 1.2 | –
355.18 K, 9998.1 kPa, Liquid | 1146.19 ± 1.2 | –
355.24 K, Liquid, Closed cell (Static) method | – | 2903 ± 5
355.27 K, 1.7 kPa, Fluid (supercritical or subcritical phases) | 0.1 ± 0.03 | –
355.27 K, 2.5 kPa, Fluid (supercritical or subcritical phases) | 0.14 ± 0.03 | –
355.27 K, 3.1 kPa, Fluid (supercritical or subcritical phases) | 0.19 ± 0.03 | –
355.27 K, 3.6 kPa, Fluid (supercritical or subcritical phases) | 0.23 ± 0.03 | –
355.27 K, 4.8 kPa, Fluid (supercritical or subcritical phases) | 0.28 ± 0.03 | –
355.27 K, 5.8 kPa, Fluid (supercritical or subcritical phases) | 0.37 ± 0.03 | –
355.27 K, 6.4 kPa, Fluid (supercritical or subcritical phases) | 0.38 ± 0.03 | –
355.27 K, 7.6 kPa, Fluid (supercritical or subcritical phases) | 0.44 ± 0.03 | –
355.27 K, 8.8 kPa, Fluid (supercritical or subcritical phases) | 0.47 ± 0.03 | –
355.27 K, 9.4 kPa, Fluid (supercritical or subcritical phases) | 0.5 ± 0.03 | –
355.27 K, 10 kPa, Fluid (supercritical or subcritical phases) | 0.52 ± 0.03 | –
355.27 K, 11.3 kPa, Fluid (supercritical or subcritical phases) | 0.61 ± 0.03 | –
355.27 K, 12.5 kPa, Fluid (supercritical or subcritical phases) | 0.64 ± 0.03 | –
355.27 K, 13.7 kPa, Fluid (supercritical or subcritical phases) | 0.67 ± 0.03 | –
355.27 K, 15 kPa, Fluid (supercritical or subcritical phases) | 0.66 ± 0.03 | –
355.27 K, 16 kPa, Fluid (supercritical or subcritical phases) | 0.83 ± 0.03 | –
355.27 K, 18.5 kPa, Fluid (supercritical or subcritical phases) | 0.93 ± 0.03 | –
355.27 K, 19.9 kPa, Fluid (supercritical or subcritical phases) | 1.04 ± 0.03 | –
355.27 K, 21.2 kPa, Fluid (supercritical or subcritical phases) | 1.09 ± 0.03 | –
355.27 K, 22.2 kPa, Fluid (supercritical or subcritical phases) | 1.15 ± 0.03 | –
355.27 K, 23.4 kPa, Fluid (supercritical or subcritical phases) | 1.24 ± 0.03 | –
355.27 K, 24.5 kPa, Fluid (supercritical or subcritical phases) | 1.28 ± 0.03 | –
355.27 K, 25.7 kPa, Fluid (supercritical or subcritical phases) | 1.37 ± 0.03 | –
355.27 K, 26.7 kPa, Fluid (supercritical or subcritical phases) | 1.39 ± 0.03 | –
355.27 K, 27.9 kPa, Fluid (supercritical or subcritical phases) | 1.42 ± 0.03 | –
355.27 K, 29.2 kPa, Fluid (supercritical or subcritical phases) | 1.46 ± 0.03 | –
355.27 K, 30.3 kPa, Fluid (supercritical or subcritical phases) | 1.62 ± 0.03 | –
355.27 K, 31.3 kPa, Fluid (supercritical or subcritical phases) | 1.64 ± 0.03 | –
355.27 K, 32.3 kPa, Fluid (supercritical or subcritical phases) | 1.71 ± 0.03 | –
355.27 K, 34.6 kPa, Fluid (supercritical or subcritical phases) | 1.82 ± 0.03 | –
355.27 K, 37.4 kPa, Fluid (supercritical or subcritical phases) | 1.95 ± 0.03 | –
355.27 K, 41.7 kPa, Fluid (supercritical or subcritical phases) | 2.14 ± 0.03 | –
355.27 K, 47.8 kPa, Fluid (supercritical or subcritical phases) | 2.49 ± 0.03 | –
355.27 K, 53.6 kPa, Fluid (supercritical or subcritical phases) | 2.8 ± 0.03 | –
355.27 K, 58 kPa, Fluid (supercritical or subcritical phases) | 3.03 ± 0.03 | –
355.27 K, 62.5 kPa, Fluid (supercritical or subcritical phases) | 3.28 ± 0.03 | –
355.27 K, 67.1 kPa, Fluid (supercritical or subcritical phases) | 3.54 ± 0.03 | –
355.27 K, 71.8 kPa, Fluid (supercritical or subcritical phases) | 3.72 ± 0.03 | –
355.27 K, 76 kPa, Fluid (supercritical or subcritical phases) | 4.09 ± 0.03 | –
355.27 K, 80.2 kPa, Fluid (supercritical or subcritical phases) | 4.21 ± 0.03 | –
355.27 K, 84.7 kPa, Fluid (supercritical or subcritical phases) | 4.42 ± 0.03 | –
355.27 K, 89.7 kPa, Fluid (supercritical or subcritical phases) | 4.7 ± 0.03 | –
355.27 K, 94.5 kPa, Fluid (supercritical or subcritical phases) | 4.96 ± 0.03 | –
355.27 K, 99.2 kPa, Fluid (supercritical or subcritical phases) | 5.14 ± 0.03 | –
355.27 K, 108.4 kPa, Fluid (supercritical or subcritical phases) | 5.69 ± 0.03 | –
355.27 K, 121.7 kPa, Fluid (supercritical or subcritical phases) | 6.32 ± 0.03 | –
355.27 K, 136.3 kPa, Fluid (supercritical or subcritical phases) | 7.14 ± 0.03 | –
355.27 K, 150.1 kPa, Fluid (supercritical or subcritical phases) | 7.91 ± 0.04 | –
355.27 K, 175.9 kPa, Fluid (supercritical or subcritical phases) | 9.29 ± 0.04 | –
355.27 K, 189 kPa, Fluid (supercritical or subcritical phases) | 9.98 ± 0.04 | –
355.27 K, 202.9 kPa, Fluid (supercritical or subcritical phases) | 10.67 ± 0.04 | –
355.27 K, 215.8 kPa, Fluid (supercritical or subcritical phases) | 11.37 ± 0.04 | –
355.27 K, 229.6 kPa, Fluid (supercritical or subcritical phases) | 12.15 ± 0.04 | –
355.27 K, 243.8 kPa, Fluid (supercritical or subcritical phases) | 12.89 ± 0.04 | –
355.27 K, 256.5 kPa, Fluid (supercritical or subcritical phases) | 13.54 ± 0.04 | –
355.27 K, 269.4 kPa, Fluid (supercritical or subcritical phases) | 14.27 ± 0.04 | –
355.27 K, 282.8 kPa, Fluid (supercritical or subcritical phases) | 15.02 ± 0.04 | –
355.27 K, 296.5 kPa, Fluid (supercritical or subcritical phases) | 15.74 ± 0.04 | –
355.27 K, 310.2 kPa, Fluid (supercritical or subcritical phases) | 16.52 ± 0.04 | –
355.27 K, 323.9 kPa, Fluid (supercritical or subcritical phases) | 17.3 ± 0.04 | –
355.27 K, 337.3 kPa, Fluid (supercritical or subcritical phases) | 18.03 ± 0.04 | –
355.27 K, 350.9 kPa, Fluid (supercritical or subcritical phases) | 18.72 ± 0.04 | –
355.27 K, 364 kPa, Fluid (supercritical or subcritical phases) | 19.44 ± 0.04 | –
355.27 K, 377.5 kPa, Fluid (supercritical or subcritical phases) | 20.18 ± 0.04 | –
355.27 K, 390.9 kPa, Fluid (supercritical or subcritical phases) | 20.91 ± 0.04 | –
355.27 K, 410.7 kPa, Fluid (supercritical or subcritical phases) | 22.1 ± 0.04 | –
355.27 K, 423.7 kPa, Fluid (supercritical or subcritical phases) | 22.78 ± 0.05 | –
355.27 K, 436.7 kPa, Fluid (supercritical or subcritical phases) | 23.55 ± 0.05 | –
355.27 K, 449.9 kPa, Fluid (supercritical or subcritical phases) | 24.26 ± 0.05 | –
355.27 K, 463 kPa, Fluid (supercritical or subcritical phases) | 25.02 ± 0.05 | –
355.27 K, 475.5 kPa, Fluid (supercritical or subcritical phases) | 25.74 ± 0.05 | –
355.27 K, 489.9 kPa, Fluid (supercritical or subcritical phases) | 26.57 ± 0.05 | –
355.27 K, 511.2 kPa, Fluid (supercritical or subcritical phases) | 27.76 ± 0.05 | –
355.27 K, 534.4 kPa, Fluid (supercritical or subcritical phases) | 29.14 ± 0.05 | –
355.27 K, 558.1 kPa, Fluid (supercritical or subcritical phases) | 30.53 ± 0.05 | –
355.27 K, 570.3 kPa, Fluid (supercritical or subcritical phases) | 31.19 ± 0.05 | –
355.27 K, 593.4 kPa, Fluid (supercritical or subcritical phases) | 32.6 ± 0.06 | –
355.27 K, 605.4 kPa, Fluid (supercritical or subcritical phases) | 33.29 ± 0.06 | –
355.27 K, 629.1 kPa, Fluid (supercritical or subcritical phases) | 34.75 ± 0.06 | –
355.27 K, 652.5 kPa, Fluid (supercritical or subcritical phases) | 36.04 ± 0.06 | –
355.27 K, 675.6 kPa, Fluid (supercritical or subcritical phases) | 37.5 ± 0.06 | –
355.27 K, 698.5 kPa, Fluid (supercritical or subcritical phases) | 38.93 ± 0.06 | –
355.27 K, 710.6 kPa, Fluid (supercritical or subcritical phases) | 39.6 ± 0.06 | –
355.27 K, 733.2 kPa, Fluid (supercritical or subcritical phases) | 40.98 ± 0.07 | –
355.27 K, 755.9 kPa, Fluid (supercritical or subcritical phases) | 42.45 ± 0.07 | –
355.27 K, 778.4 kPa, Fluid (supercritical or subcritical phases) | 43.82 ± 0.07 | –
355.27 K, 800.7 kPa, Fluid (supercritical or subcritical phases) | 45.25 ± 0.07 | –
355.27 K, 822.7 kPa, Fluid (supercritical or subcritical phases) | 46.65 ± 0.07 | –
355.27 K, 844.7 kPa, Fluid (supercritical or subcritical phases) | 48.08 ± 0.07 | –
355.27 K, 866.4 kPa, Fluid (supercritical or subcritical phases) | 49.39 ± 0.08 | –
355.27 K, 887.6 kPa, Fluid (supercritical or subcritical phases) | 50.79 ± 0.08 | –
355.27 K, 909.3 kPa, Fluid (supercritical or subcritical phases) | 52.17 ± 0.08 | –
355.27 K, 921.7 kPa, Fluid (supercritical or subcritical phases) | 53.01 ± 0.08 | –
355.27 K, 942.8 kPa, Fluid (supercritical or subcritical phases) | 54.34 ± 0.08 | –
355.27 K, 963 kPa, Fluid (supercritical or subcritical phases) | 55.68 ± 0.08 | –
355.27 K, 985.5 kPa, Fluid (supercritical or subcritical phases) | 57.29 ± 0.09 | –
355.27 K, 1007.7 kPa, Fluid (supercritical or subcritical phases) | 58.71 ± 0.09 | –
355.27 K, 1053.4 kPa, Fluid (supercritical or subcritical phases) | 61.79 ± 0.09 | –
355.27 K, 1076.3 kPa, Fluid (supercritical or subcritical phases) | 63.38 ± 0.09 | –
355.27 K, 1097.4 kPa, Fluid (supercritical or subcritical phases) | 64.83 ± 0.1 | –
355.27 K, 1119.1 kPa, Fluid (supercritical or subcritical phases) | 66.35 ± 0.1 | –
355.27 K, 1140.9 kPa, Fluid (supercritical or subcritical phases) | 67.89 ± 0.1 | –
355.27 K, 1162.7 kPa, Fluid (supercritical or subcritical phases) | 69.42 ± 0.1 | –
355.27 K, 1184.6 kPa, Fluid (supercritical or subcritical phases) | 70.94 ± 0.1 | –
355.27 K, 1205.7 kPa, Fluid (supercritical or subcritical phases) | 72.55 ± 0.11 | –
355.27 K, 1226.6 kPa, Fluid (supercritical or subcritical phases) | 74.03 ± 0.11 | –
355.27 K, 1248.5 kPa, Fluid (supercritical or subcritical phases) | 75.63 ± 0.11 | –
355.27 K, 1268.8 kPa, Fluid (supercritical or subcritical phases) | 77.12 ± 0.11 | –
355.27 K, 1291.7 kPa, Fluid (supercritical or subcritical phases) | 78.82 ± 0.12 | –
355.27 K, 1314.5 kPa, Fluid (supercritical or subcritical phases) | 80.53 ± 0.12 | –
355.27 K, 1336.6 kPa, Fluid (supercritical or subcritical phases) | 82.25 ± 0.12 | –
355.27 K, 1358.9 kPa, Fluid (supercritical or subcritical phases) | 83.95 ± 0.12 | –
355.27 K, 1380.8 kPa, Fluid (supercritical or subcritical phases) | 85.69 ± 0.13 | –
355.27 K, 1401.7 kPa, Fluid (supercritical or subcritical phases) | 87.28 ± 0.13 | –
355.27 K, 1423 kPa, Fluid (supercritical or subcritical phases) | 89.04 ± 0.13 | –
355.27 K, 1445 kPa, Fluid (supercritical or subcritical phases) | 90.76 ± 0.13 | –
355.27 K, 1465.4 kPa, Fluid (supercritical or subcritical phases) | 92.28 ± 0.13 | –
355.27 K, 1486.6 kPa, Fluid (supercritical or subcritical phases) | 94.07 ± 0.14 | –
355.27 K, 1509.1 kPa, Fluid (supercritical or subcritical phases) | 95.9 ± 0.14 | –
355.27 K, 1531 kPa, Fluid (supercritical or subcritical phases) | 97.69 ± 0.14 | –
355.27 K, 1552.1 kPa, Fluid (supercritical or subcritical phases) | 99.45 ± 0.15 | –
355.27 K, 1573.2 kPa, Fluid (supercritical or subcritical phases) | 101.27 ± 0.15 | –
